Measurements: ChEMBL document CHEMBL1201862, “PubChem BioAssay data set” (2004)
Where a name gives a salt, the structure may show the parent alone. Values belong to the compound of their own block, whether it stands above or below them. Calls of active or inactive are those of the source.

Experiments:
[1] = viability loss in Vero cells – cytotoxicity control for Vif-APOBEC3G degradation inhibitor project, dose response (AID 1117358); format: functional; conditions: Vero
[2] = molecular target: T1, RNA-binding protein pos-1 (Caenorhabditis elegans, UniProt G5EF15); assay: disruptors of C. elegans POS-1 RNA interaction – biochemical, fluorescence polarization, dose response (AID 1964);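 also: purified POS-1 fused to maltose binding protein made in E. coli; potency of compounds blocking POS-1 binding to fluorescent RNA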
T1 sequence (G5EF15 whole entry): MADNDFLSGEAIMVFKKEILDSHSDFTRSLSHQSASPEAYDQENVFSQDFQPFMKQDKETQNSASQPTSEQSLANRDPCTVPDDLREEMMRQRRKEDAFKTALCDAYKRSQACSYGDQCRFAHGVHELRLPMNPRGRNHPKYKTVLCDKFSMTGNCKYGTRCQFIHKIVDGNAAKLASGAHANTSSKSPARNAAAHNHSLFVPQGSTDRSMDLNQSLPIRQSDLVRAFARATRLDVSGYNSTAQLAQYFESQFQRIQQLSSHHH

[3] = molecular target: T2, Zinc finger protein mex-5 (Caenorhabditis elegans, UniProt Q9XUB2); assay: potency of MEX-5 RNA-binding blockers – biochemical, C. elegans, fluorescence polarization, dose response (AID 1960)
T2 sequence (Q9XUB2 whole entry): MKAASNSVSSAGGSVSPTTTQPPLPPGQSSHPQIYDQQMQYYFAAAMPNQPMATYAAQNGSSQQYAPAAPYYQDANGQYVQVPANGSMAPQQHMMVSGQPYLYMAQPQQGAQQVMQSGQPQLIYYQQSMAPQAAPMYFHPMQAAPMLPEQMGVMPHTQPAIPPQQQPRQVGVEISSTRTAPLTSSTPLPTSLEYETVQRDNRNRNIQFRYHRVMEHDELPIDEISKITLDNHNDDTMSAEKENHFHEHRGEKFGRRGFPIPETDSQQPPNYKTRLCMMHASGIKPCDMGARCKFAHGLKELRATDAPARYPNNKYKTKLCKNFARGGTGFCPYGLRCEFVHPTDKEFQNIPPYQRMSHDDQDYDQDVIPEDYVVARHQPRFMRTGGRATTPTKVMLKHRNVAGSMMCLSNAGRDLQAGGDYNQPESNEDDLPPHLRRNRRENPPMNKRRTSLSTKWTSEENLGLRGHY

[4] = molecular target: T3, Apoptotic protease-activating factor 1 (Homo sapiens, UniProt O14727); format: functional
T3 sequence (O14727 whole entry): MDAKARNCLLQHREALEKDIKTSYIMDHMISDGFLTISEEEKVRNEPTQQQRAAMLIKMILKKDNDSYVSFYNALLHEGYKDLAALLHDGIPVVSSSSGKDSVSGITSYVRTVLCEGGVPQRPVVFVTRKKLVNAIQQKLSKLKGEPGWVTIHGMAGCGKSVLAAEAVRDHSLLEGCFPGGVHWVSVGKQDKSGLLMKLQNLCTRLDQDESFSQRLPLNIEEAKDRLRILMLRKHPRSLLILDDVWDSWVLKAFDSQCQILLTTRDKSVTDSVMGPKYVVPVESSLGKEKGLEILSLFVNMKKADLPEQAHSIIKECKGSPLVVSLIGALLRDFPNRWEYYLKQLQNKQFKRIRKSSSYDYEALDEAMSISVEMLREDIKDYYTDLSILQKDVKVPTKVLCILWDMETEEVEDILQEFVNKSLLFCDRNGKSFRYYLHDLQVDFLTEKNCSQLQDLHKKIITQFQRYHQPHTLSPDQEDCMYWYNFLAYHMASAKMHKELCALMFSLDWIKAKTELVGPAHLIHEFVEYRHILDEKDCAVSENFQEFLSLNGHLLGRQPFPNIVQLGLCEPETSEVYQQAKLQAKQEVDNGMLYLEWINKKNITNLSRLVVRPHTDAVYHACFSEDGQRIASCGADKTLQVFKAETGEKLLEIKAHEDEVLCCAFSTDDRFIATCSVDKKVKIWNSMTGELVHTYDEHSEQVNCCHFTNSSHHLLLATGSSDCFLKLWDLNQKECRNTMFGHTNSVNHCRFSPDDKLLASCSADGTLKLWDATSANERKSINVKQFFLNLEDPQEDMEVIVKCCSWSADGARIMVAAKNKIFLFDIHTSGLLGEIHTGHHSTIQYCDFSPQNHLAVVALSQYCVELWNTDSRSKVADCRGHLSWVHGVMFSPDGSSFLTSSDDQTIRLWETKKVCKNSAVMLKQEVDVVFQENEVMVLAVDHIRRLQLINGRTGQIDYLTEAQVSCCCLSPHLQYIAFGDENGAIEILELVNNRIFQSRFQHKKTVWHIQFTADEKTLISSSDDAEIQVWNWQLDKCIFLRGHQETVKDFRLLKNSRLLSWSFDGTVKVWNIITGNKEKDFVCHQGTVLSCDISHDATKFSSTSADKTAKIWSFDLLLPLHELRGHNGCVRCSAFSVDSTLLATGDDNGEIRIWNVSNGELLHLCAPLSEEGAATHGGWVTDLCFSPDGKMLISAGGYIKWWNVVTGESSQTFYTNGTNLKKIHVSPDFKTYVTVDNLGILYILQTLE

Genome polyprotein = Genome polyprotein (dengue virus type 2, UniProt P29990); assay: flavivirus cap methylation enzyme inhibition – biochemical, confirmation dose response, primary screen (AID 588689); format: functional
Sequence of Genome polyprotein (P29990 2492-3391 limits assumed): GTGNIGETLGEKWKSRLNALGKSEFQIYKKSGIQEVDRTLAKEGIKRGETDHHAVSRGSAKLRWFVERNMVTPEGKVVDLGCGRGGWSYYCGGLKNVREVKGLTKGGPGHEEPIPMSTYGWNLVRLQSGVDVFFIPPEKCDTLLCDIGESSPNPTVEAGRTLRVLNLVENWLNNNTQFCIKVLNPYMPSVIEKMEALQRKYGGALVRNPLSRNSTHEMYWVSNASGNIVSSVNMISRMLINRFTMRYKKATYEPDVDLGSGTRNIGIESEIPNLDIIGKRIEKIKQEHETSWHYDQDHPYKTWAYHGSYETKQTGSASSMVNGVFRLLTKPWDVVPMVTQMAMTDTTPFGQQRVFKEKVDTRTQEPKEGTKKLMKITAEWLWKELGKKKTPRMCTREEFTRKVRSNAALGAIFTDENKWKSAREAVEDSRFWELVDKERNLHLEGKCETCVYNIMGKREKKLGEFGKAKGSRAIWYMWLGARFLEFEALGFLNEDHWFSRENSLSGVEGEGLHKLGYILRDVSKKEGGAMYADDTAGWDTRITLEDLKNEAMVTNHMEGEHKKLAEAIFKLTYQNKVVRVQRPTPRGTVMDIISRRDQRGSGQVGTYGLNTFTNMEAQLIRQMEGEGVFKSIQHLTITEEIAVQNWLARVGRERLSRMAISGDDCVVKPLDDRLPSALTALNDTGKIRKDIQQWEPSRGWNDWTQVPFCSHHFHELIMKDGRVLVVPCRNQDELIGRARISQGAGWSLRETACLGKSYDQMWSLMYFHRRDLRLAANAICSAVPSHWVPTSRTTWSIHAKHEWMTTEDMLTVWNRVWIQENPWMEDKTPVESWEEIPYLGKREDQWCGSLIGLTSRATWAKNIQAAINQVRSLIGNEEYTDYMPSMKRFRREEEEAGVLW

[5] = molecular target: Glutathione-S-transferase (Schistosoma japonicum, UniProt Q26513); assay: GST-antibody interaction or FRET quenching – biochemical, TR-FRET, artefact control for Vif-APOBEC3G degradation inhibitor project, dose response (AID 1117362); format: functional
Sequence of Glutathione-S-transferase (Q26513 whole entry): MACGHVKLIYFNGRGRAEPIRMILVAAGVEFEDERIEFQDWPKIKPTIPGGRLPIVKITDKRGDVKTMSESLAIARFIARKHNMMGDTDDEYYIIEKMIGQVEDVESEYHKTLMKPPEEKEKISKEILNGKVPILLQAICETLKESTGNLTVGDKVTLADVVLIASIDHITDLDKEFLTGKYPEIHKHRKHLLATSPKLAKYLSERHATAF

[6] = viability inhibitors of stage V gametocytes – luminescence, dose response (AID 1117278); format: functional, cell-based;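 also: gametocytes exposed to compound for 24 hours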
[7] = viability loss in human Jurkat cells – cell-based, luminescence, cytotoxicity control for P. falciparum gametocyte viability project, dose response (AID 1117277); format: functional;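 also: potency reflects loss of cellular ATP meaning fewer viable cells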
[8] = viability loss in A549 lung cells – cell-based, 24 h, CellTiter-Glo luminescence, cherry-picks, cytotoxicity control, dose response (AID 1053115); format: functional; conditions: A549, 24 h
[9] = lung carcinoma cell viability loss – CellTiter-Glo luminescence, dry powder, set 17, dose response (AID 1117284); format: functional, cell-based; conditions: A549
[10] = molecular target: T4, Low molecular weight phosphotyrosine protein phosphatase (Homo sapiens, UniProt P24666); assay: inhibition of LMPTP-A enzymatic activity – biochemical, OMFP substrate, fluorescence intensity, set 2, dose response (AID 743307); format: functional
T4 sequence (P24666 whole entry): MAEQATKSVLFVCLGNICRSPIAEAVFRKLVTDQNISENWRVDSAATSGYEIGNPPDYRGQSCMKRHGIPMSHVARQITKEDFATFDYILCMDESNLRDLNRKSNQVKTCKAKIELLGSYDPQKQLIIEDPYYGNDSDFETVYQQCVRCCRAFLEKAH

[11] = molecular target: T4, Low molecular weight phosphotyrosine protein phosphatase; assay: inhibition of human LMPTP enzyme activity – biochemical, absorbance, pNPP substrate, LMPTP-A isoform, set 2, orthogonal assay, dose response (AID 743308); format: functional
[12] = loss of HEK293T viability via ATP – cell-based, plate reader, dry powder, set 10, cytotoxicity control, dose response (AID 743315); format: functional; conditions: HEK293
[13] = NIH-3T3 fibroblast cytotoxicity, dose response, cytotoxicity control, cell-based, fluorescence, Alamar Blue, secondary assay (AID 2327); format: functional;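 also: NIH-3T3 mouse fibroblasts cultured with fluconazole at 8 µg/mL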
cells [14] = format: functional, cell-based
[15] = fluconazole-exposed Candida albicans growth modulators – fluorescence, retest, confirmation (AID 2467); format: functional, cell-based
cells [16] = format: functional, cell-based; remark: listed apart in the source
[17] = molecular target: Serine/threonine-protein phosphatase (Candida dubliniensis (strain CD36 / CBS 7987 / NCPF 3949 / NRRLY-17841) (Yeast), UniProt B9W6M3); assay: blockers of CaCl2-induced CDRE-lacZ signaling – S. cerevisiae, luminescence, secondary, dose response (AID 2388); format: functional, cell-based;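 also: yeast reporter cells carrying a calcineurin-responsive lacZ construct stimulated with calcium chloride; luminescent beta-galactosidase reporter signal in whole cells rather than isolated phosphatase activity; potency for inhibition where a drop in reporter signal means calcineurin blockade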
Sequence of Serine/threonine-protein phosphatase (B9W6M3 whole entry): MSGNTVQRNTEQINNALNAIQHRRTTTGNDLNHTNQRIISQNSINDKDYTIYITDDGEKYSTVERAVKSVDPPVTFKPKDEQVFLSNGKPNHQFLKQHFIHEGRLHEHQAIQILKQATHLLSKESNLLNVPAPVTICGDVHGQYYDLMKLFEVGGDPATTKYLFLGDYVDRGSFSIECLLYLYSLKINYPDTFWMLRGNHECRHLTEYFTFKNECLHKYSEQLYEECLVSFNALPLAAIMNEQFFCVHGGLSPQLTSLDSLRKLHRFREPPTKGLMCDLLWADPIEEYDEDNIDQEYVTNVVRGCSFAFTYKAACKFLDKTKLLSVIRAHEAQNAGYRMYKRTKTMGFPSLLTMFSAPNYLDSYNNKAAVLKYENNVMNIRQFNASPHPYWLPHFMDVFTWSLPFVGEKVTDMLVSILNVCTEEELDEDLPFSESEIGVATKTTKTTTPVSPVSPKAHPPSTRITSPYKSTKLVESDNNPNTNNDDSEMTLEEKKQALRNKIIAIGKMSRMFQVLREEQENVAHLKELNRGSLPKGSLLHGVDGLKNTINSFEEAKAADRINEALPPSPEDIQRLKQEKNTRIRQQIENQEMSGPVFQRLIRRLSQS

[18] = molecular target: ATP-dependent molecular chaperone HSP82 (Candida albicans (strain WO-1) (Yeast), UniProt C4YTQ8); assay: steroid-induced GRE reporter decrease in yeast – S. cerevisiae, luminescence, Hsp90 inhibitor project, dose response (AID 2400); format: functional, cell-based;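 also: beta-galactosidase luminescence from glucocorticoid response element reporter as proxy for Hsp90 function; inhibitor potency where signal loss means Hsp90 inhibition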
Sequence of ATP-dependent molecular chaperone HSP82 (C4YTQ8 whole entry): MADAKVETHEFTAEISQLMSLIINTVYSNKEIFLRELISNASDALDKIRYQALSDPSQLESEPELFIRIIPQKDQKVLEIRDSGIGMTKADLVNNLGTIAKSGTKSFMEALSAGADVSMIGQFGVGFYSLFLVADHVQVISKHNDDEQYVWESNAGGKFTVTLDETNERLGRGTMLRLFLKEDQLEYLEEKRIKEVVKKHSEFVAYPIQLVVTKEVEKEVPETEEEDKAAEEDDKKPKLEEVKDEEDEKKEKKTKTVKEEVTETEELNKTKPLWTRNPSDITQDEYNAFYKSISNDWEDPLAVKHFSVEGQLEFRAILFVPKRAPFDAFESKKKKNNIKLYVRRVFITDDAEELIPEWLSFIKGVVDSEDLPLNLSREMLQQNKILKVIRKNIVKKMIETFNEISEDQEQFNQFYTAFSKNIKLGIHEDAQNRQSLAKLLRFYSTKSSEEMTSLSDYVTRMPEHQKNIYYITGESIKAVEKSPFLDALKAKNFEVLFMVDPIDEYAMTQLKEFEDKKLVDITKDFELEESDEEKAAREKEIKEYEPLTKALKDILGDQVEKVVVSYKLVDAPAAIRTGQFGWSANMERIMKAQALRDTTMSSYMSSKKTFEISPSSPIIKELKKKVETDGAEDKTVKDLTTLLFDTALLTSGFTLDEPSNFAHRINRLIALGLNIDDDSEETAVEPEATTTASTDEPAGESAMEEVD

[19] = rise of 2N DNA cells, HeLa – IC50, dose response (AID 1117349); format: functional, cell-based
[20] = rise of 4N DNA cells, HeLa – IC50, dose response (AID 1117351); format: functional, cell-based
[21] = IC50 of insulin release inhibition, rat insulinoma INS-1E line, 5 mM glucose, cell-based (AID 1117331); format: functional

Compound: Oc1ccccc1-c1cc(C(F)(F)C(F)F)[nH]n1
CC50 [1]: > 40 µM (active)

EC50 [2]: 46.9 µM (active) | EC50 [3]: 42 µM (active) | IC50 [4]: 15.4 µM (active) | IC50 (Genome polyprotein): 19.8 µM (active) | IC50 [5]: > 100 µM (active)
Compound: COC(=O)CCC(=O)OC1(C)C(=O)C2=CN(CCCOC(C)C)C(c3ccc(OC)cc3)=CC2=C(Br)C1=O (configuration not stated)

Compound: CCOC(=O)c1c(N)c2cc([N+](=O)[O-])cnc2n1C
IC50 [6]: > 109 µM (inactive) | IC50 [7]: > 83.4 µM (inactive)

Compound: C[C@H]1CN([C@@H](C)CO)S(=O)(=O)c2ccc(C#CC(C)(C)O)cc2O[C@H]1CN(C)Cc1ccc(-c2ccccc2)cc1
AC50 [8]: > 60 µM (inactive) | AC50 [9]: 20.4 µM (active)

IC50 [10]: > 80 µM (inactive) | IC50 [11]: > 80 µM (inactive)
Compound: c1ccc(-c2nc(NCCN3CCCC3)c3ccccc3n2)cc1

Compound: CC(C)c1ccc(OCCn2c(=S)[nH]c3ccccc32)cc1
AC50 [12]: 27.3 µM (active)

Compound: CC(=O)N(O)CCCCCNC(=O)CCC(=O)N(O)CCCCCNC(=O)CCC(=O)N(O)CCCCCN [DEFEROXAMINE MESYLATE]
EC50 [13]: > 150 µM (inactive) | EC50 (cells [14]): 225 µM (active) | EC50 [15]: 578 nM (active) | EC50 (cells [16]): > 350 µM (not active) | EC50 [17]: > 180 µM (inactive) | EC50 [18]: > 150 µM (inactive) | IC50 [19]: > 10 µM (inactive) | IC50 [20]: > 10 µM (inactive)

Compound: CN1CCC(N(Cc2cccs2)c2ccccc2)CC1 [THENALIDINE]
IC50 [21]: 20.4 µM (inactive)
